The subject of one series is hNKCC1. More on the design: method as in Gill et al.[47]. Conditions: Rb+ flux, Ion Channel Reader technology, HEK cell line; ref Gill et al.[47]; cited from earlier work.
A further series has as its target T1, hNKCC1A (Homo sapiens, UniProt P55011).
T1 construct: Full-length NKCC1 (NKCC1A) comprises ~1200 amino acids; expressed in transfected cells; host or cells: Xenopus laevis oocytes injected with cRNA (pXOOM vector)
T1 sequence (P55011 1-1212): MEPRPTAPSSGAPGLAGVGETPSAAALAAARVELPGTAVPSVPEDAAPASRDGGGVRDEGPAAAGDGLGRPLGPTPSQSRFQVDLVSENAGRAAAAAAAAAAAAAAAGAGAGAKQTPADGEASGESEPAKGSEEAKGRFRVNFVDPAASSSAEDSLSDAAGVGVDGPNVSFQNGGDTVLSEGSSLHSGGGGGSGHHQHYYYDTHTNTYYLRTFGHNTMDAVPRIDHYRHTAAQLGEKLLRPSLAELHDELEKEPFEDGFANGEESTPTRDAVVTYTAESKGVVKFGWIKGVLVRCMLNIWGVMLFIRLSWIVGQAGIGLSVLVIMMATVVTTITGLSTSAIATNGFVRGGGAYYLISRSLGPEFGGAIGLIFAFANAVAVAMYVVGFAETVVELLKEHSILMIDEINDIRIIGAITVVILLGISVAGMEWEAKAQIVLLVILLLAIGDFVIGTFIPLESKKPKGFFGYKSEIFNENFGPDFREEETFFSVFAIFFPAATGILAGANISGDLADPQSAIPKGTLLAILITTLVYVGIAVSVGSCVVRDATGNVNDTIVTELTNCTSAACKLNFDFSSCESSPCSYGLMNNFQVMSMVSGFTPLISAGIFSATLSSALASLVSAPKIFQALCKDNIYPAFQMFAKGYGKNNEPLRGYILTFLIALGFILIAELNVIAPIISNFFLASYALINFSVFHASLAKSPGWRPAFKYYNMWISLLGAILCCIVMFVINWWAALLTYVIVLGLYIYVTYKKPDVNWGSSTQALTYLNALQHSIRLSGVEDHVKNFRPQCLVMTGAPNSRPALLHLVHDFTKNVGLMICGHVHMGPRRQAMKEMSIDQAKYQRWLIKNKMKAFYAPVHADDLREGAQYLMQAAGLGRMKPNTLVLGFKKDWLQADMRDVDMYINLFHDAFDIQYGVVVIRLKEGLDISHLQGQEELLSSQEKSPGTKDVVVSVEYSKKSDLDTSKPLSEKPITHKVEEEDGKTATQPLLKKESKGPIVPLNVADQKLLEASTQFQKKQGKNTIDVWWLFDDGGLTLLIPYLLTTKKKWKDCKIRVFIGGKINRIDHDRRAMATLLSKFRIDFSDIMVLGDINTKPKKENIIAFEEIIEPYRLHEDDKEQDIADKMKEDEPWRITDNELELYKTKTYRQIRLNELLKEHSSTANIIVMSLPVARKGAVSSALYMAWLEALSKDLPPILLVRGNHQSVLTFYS
Also noted: method as in ref Payne et al.[57]; Isenring et al.[58]; Plata et al.[59]; Carota et al.[56]; Lykke et al.[60]; Lykke et al.[29]. Conditions: Xenopus oocytes; activated state; ref Payne et al.[57]; Isenring et al.[58]; Plata et al.[59]; Carota et al.[56]; Lykke et al.[60]; Lykke et al.[29]; read-out: IC50 (µM) NKCC1 (hA); cited from earlier work.

The subject of a further series is hNKCC2 isoform B. Conditions: Xenopus oocytes; ref Payne et al.[57]; Isenring et al.[58]; Plata et al.[59]; Carota et al.[56]; Lykke et al.[60]; Lykke et al.[29]; read-out: IC50 (µM) NKCC2 (hB); cited from earlier work.
The target in a further series is T2, hNKCC1B (Homo sapiens, UniProt P55011).
T2 construct: expressed in transfected cells; host or cells: Xenopus laevis oocytes injected with cRNA (pXOOM vector)
T2 sequence (P55011 1-1196 isoform P55011-3): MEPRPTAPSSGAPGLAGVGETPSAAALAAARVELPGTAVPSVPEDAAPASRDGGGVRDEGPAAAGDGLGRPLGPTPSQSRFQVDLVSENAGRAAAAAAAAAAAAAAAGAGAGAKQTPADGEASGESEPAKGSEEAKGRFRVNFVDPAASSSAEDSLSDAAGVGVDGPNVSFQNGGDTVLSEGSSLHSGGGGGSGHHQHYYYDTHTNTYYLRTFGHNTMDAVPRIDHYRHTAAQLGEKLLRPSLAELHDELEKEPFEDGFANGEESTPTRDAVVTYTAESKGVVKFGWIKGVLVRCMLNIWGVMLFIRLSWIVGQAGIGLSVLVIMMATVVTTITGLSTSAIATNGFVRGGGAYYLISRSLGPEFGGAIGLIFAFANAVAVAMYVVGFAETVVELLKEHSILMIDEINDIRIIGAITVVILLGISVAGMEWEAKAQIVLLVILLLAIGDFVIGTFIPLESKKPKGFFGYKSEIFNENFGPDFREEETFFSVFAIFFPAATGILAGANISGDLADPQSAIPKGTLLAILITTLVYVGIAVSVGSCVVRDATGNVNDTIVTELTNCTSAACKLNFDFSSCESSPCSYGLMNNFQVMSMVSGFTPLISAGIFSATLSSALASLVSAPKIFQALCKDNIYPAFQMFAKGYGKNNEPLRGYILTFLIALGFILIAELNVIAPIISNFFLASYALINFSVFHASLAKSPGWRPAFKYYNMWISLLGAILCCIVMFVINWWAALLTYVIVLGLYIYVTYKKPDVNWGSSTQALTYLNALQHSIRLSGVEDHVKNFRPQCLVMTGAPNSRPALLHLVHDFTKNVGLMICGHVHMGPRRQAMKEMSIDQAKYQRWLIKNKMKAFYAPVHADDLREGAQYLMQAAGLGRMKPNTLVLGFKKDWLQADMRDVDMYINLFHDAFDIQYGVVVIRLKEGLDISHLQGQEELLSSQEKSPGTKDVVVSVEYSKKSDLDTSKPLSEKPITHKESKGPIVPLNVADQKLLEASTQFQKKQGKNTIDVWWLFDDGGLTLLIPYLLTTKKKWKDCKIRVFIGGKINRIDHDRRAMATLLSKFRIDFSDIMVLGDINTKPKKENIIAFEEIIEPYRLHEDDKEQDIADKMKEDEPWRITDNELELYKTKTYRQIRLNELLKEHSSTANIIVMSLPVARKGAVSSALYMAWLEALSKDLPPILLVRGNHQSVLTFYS
Put plainly: 86Rb+ uptake in hNKCC1B-expressing Xenopus laevis oocytes. The series is classed as cell-based. Conditions: 5 min, corrected for uninjected oocytes, median and range of 3–7 experiments.

For series [1] the following is noted: ref [9],[10]; cited from earlier work.
Details of series [2]: method as in DrugBank database. Conditions: ref DrugBank database; cited from earlier work.

We go through one compound from article PMC6026185 (Scientific Reports, 2018).

Description for hNKCC1B: Human NKCC1A (NM_001046, obtained from Prof. Biff Forbush, Yale School of Medicine, CT) and NKCC1B (prepared by site-directed mutagenesis from hNKCC1A as described below) were subcloned into the oocytes expression vector pXOOM, linearized downstream from the poly-A segment, and in vitro transcribed using T7-mMessage Machine according to manufacturer’s instructions (Ambion, Austin, TX). cRNA was then extracted with MEGAclear (Ambion, Austin, TX) and micro-injected into defolliculated Xenopus laevis oocytes (25 ng RNA/oocyte). The oocytes were kept in Kulori medium (in mM: 90 NaCl, 1 KCl, 1 CaCl2, 1 MgCl2, 5 Hepes, pH 7.4, 182 mOsm) for 5–6 days at 19 °C prior to experiments.
To activate NKCC1A and NKCC1B prior to the ^86Rb^+ uptake measurements aimed at measuring NKCC-mediated fluxes, hNKCC1A- or hNKCC1B-expressing oocytes or uninjected control oocytes (4–13 oocytes per well) were pre-incubated for 30 min at room temperature in a K^+-free solution (containing in mM: 5 choline chloride, 95 NaCl, 1 MgCl2, 1 CaCl2, 10 Hepes, pH 7.4, 207 mOsm), which causes shrinkage of the oocyte and thus activation of NKCC1A[22]. […]
Significance of differences in transport activity of hNKCC1A or hNKCC1B expressing oocytes vs. uninjected oocytes were analyzed by the Kruskal-Wallis test followed by Dunn’s multiple comparisons test. […]

On to `CCCCNc1cc(C(=O)O)cc(S(N)(=O)=O)c1Oc1ccccc1` [Bumetanide], for which the IC50 – broadly, the concentration that gives 50% inhibition – with hNKCC1 is 1160 nM; on hNKCC1A, 0.68 µM; in the series with hNKCC2 isoform B it was 0.22 µM; against hNKCC1B it was 0.842 µM. The plasma protein binding in series [1] is recorded as above 95%. In addition, the “Lipophilicity (logP)” value in series [2] is given as 2.7.
